Experimental data from patent US12534699B2, “Method for promoting growth of bacteria of genus Bifidobacterium” (KABUSHIKI KAISHA YAKULT HONSHA, priority 2019, dated 2026).

Experiments:
Type in all cases: cell-based
[1] = system: Lactobacillus casei YIT 9029; test: Culture of YIT 9029 in skimmed milk culture medium with L-cystine or L-cysteine; conditions: YIT 9029, skimmed milk culture medium, 0.05 (w/v) %, 37° C., 12 hours, FIG. 1
Procedure: (§1) Bifidobacterium breve YIT 12272 (hereinafter, referred to as BbY), Bifidobacterium bifidum YIT 10347 (hereinafter, referred to as BF-1), Lactobacillus casei YIT 9029 (hereinafter, referred to as YIT 9029), and Lactobacillus acidophilus YIT 0198 (hereinafter, referred to as YIT 0198) were used.
(§2) A skimmed milk powder (ABC, manufactured by MEGMILK SNOW BRAND Co., Ltd.) was dissolved in RO water at 12% (w/v), the solution was dispensed in 10 mL aliquots in a rimmed medium-sized test tube while replacing the headspace with nitrogen gas and sealed with a butyl rubber stopper. Subsequently, the solution was sterilized by heat in an autoclave (SX-500, manufactured by Tomy Seiko Co., Ltd.) at 115° C. for 30 minutes to provide a skimmed milk culture medium (additive-free culture medium). […]
(§3) The pH of a culture medium or a bacterial solution was measured using a desk-top pH meter (F52, manufactured by HORIBA, Ltd.). […]
(§4) Regardless of the bacterial strain, a bacterial solution was appropriately diluted with a 0.85% (w/v) sodium chloride aqueous solution (physiological saline solution). […] The grown colonies were counted as the viable cell count. […] Colonies were counted using a colony counter ProtoCOL (manufactured by Synoptics Ltd.).

[2] = system: Bifidobacterium breve YIT 12272 (BbY); test: Culture of BbY in skimmed milk culture medium with L-cystine or L-cysteine (simultaneous / individual heating); conditions: for growth rate of the viable cell count, simultaneous versus individual heating (growth curve): final concentration 0.03% (w/v), FIG. 2; for viable cell count and acidity versus culture medium not containing L-cystine and L-cysteine: simultaneous heating culture medium (skimmed milk or whey), 0.001 to 0.1% (w/v), FIGS. 3 and 4; for concentration at which the viable cell count was maximum: skimmed milk simultaneous heating culture medium, culture time 9 hours
Procedure: as §1
A skimmed milk powder (ABC, manufactured by MEGMILK SNOW BRAND Co., Ltd.) was dissolved in RO water at 12% (w/v), the solution was dispensed in 10 mL aliquots in a rimmed medium-sized test tube while replacing the headspace with nitrogen gas and sealed with a butyl rubber stopper. […] In addition, a skimmed milk culture medium (simultaneous heating culture medium) was prepared in anaerobic conditions by adding an L-cystine (manufactured by Kyowa Hakko Bio Co., Ltd.) aqueous suspension or an L-cysteine hydrochloride (manufactured by Nichiri Kagaku Co., Ltd.) aqueous solution to a skimmed milk culture medium at a final concentration of 0.05 (w/v) % and performing heat sterilization after the addition of the suspension or the solution, and a skimmed milk culture medium (individual heating culture medium) was prepared in anaerobic conditions by adding the suspension or the solution to a skimmed milk culture medium at a final concentration of 0.05 (w/v) % after heat sterilization and immediately before inoculation. Here, the L-cystine aqueous suspension and the L-cysteine hydrochloride aqueous solution were prepared as a 5% (w/v) aqueous suspension and a 5% (w/v) aqueous solution, respectively, and were added to each culture medium at an amount of 1% (v/v). In order to unify the changes in the concentration and the changes in the redox potential of samples due to the addition of the solution, 1% (v/v) of sterilized water was added to the simultaneous heating culture medium immediately before inoculation, to the individual heating culture medium before heating, and to the additive-free culture medium before heating and immediately before inoculation, i.e., twice.
(§5) When bacteria were inoculated, inoculation was performed while replacing the headspace of the container with nitrogen gas, and the nitrogen gas was sealed with a butyl rubber stopper, followed by culture. The culture was performed in a thermostat water bath set to 37° C. for 12 hours.
(§6) The pH of a culture medium or a bacterial solution was measured using a desk-top pH meter (F52, manufactured by HORIBA, Ltd.).
(§7) The amount of a 0.1 N sodium hydroxide aqueous solution for 9.0 g of a bacterial solution required to reach a pH of 8.5 was defined as acidity. The measurement was performed using an automatic titrator (manufactured by HIRANUMA Co., Ltd.).
(§8) Regardless of the bacterial strain, a bacterial solution was appropriately diluted with a 0.85% (w/v) sodium chloride aqueous solution (physiological saline solution). The diluted bacterial solution was inoculated with a spiral plater EDDY JET (manufactured by IUL Instruments GmbH) on a plate culture medium of TOS propionate agar medium (manufactured by Yakult Pharmaceutical Industry Co., Ltd.) in the case of bacteria of the genus Bifidobacterium and a plate culture medium of BCP Added Plate Count medium (manufactured by EIKEN CHEMICAL CO., LTD.) in the case of bacteria of the genus Lactobacillus, followed by culture at 37° C. for 48 to 72 hours. The grown colonies were counted as the viable cell count. The bacteria of the genus Lactobacillus were cultured in aerobic conditions, and the bacteria of the genus Bifidobacterium were cultured in anaerobic conditions (Anaero Pack, manufactured by MITSUBISHI GAS CHEMICAL COMPANY, INC.). Colonies were counted using a colony counter ProtoCOL (manufactured by Synoptics Ltd.).
As in Example 1, each simultaneous heating culture medium of milk and L-cystine or L-cysteine was prepared. The addition concentration of L-cystine or L-cysteine was adjusted to 0.001, 0.003, 0.005, 0.01, 0.03, 0.05, or 0.1% (w/v) as the final concentration. […]

[3] = system: Bifidobacterium bifidum YIT 10347 (BF-1); test: Culture of BF-1 in skimmed milk culture medium with L-cystine or L-cysteine; conditions: for viable cell count and acidity versus culture medium not containing L-cystine and L-cysteine: BF-1, simultaneous heating culture medium (skimmed milk or whey), 0.001 to 0.1% (w/v), FIGS. 5 and 6; for concentration at which the viable cell count was maximum: BF-1, skimmed milk simultaneous heating culture medium, 12 hours
Procedure: as §1
A skimmed milk powder (ABC, manufactured by MEGMILK SNOW BRAND Co., Ltd.) was dissolved in RO water at 12% (w/v), the solution was dispensed in 10 mL aliquots in a rimmed medium-sized test tube while replacing the headspace with nitrogen gas and sealed with a butyl rubber stopper. Subsequently, the solution was sterilized by heat in an autoclave (SX-500, manufactured by Tomy Seiko Co., Ltd.) at 115° C. for 30 minutes to provide a skimmed milk culture medium (additive-free culture medium). In addition, a skimmed milk culture medium (simultaneous heating culture medium) was prepared in anaerobic conditions by adding an L-cystine (manufactured by Kyowa Hakko Bio Co., Ltd.) aqueous suspension or an L-cysteine hydrochloride (manufactured by Nichiri Kagaku Co., Ltd.) aqueous solution to a skimmed milk culture medium at a final concentration of 0.05 (w/v) % and performing heat sterilization after the addition of the suspension or the solution, and a skimmed milk culture medium (individual heating culture medium) was prepared in anaerobic conditions by adding the suspension or the solution to a skimmed milk culture medium at a final concentration of 0.05 (w/v) % after heat sterilization and immediately before inoculation. Here, the L-cystine aqueous suspension and the L-cysteine hydrochloride aqueous solution were prepared as a 5% (w/v) aqueous suspension and a 5% (w/v) aqueous solution, respectively, and were added to each culture medium at an amount of 1% (v/v). In order to unify the changes in the concentration and the changes in the redox potential of samples due to the addition of the solution, 1% (v/v) of sterilized water was added to the simultaneous heating culture medium immediately before inoculation, to the individual heating culture medium before heating, and to the additive-free culture medium before heating and immediately before inoculation, i.e., twice.
as §5, §6, §7, §8
As in Example 1, each simultaneous heating culture medium of milk and L-cystine or L-cysteine was prepared. […]

[4] = system: Lactobacillus acidophilus YIT 0198; test: Culture of YIT 0198 in skimmed milk culture medium with L-cystine or L-cysteine; conditions: YIT 0198, skimmed milk culture medium, 0.05 (w/v) %, 37° C., 12 hours, FIG. 1
Procedure: as §1, §2, §3, §4

[5] = BbY, skimmed milk, 0.05 (w/v) %, cultured 12 hours
[6] = BbY, skimmed milk, L-cystine 0.03% (w/v), 115° C. for 30 min, after heat sterilization (individual heating), 12 hours
[7] = BbY, skimmed milk, L-cystine 0.03% (w/v), 115° C. for 30 min, before heat sterilization (simultaneous heating), 12 hours
[8] = BbY, skimmed milk, L-cystine 0.03% (w/v), 121° C. for 30 min, after heat sterilization (individual heating), 12 hours
[9] = BbY, skimmed milk, L-cystine 0.03% (w/v), 121° C. for 30 min, before heat sterilization (simultaneous heating), 12 hours
[10] = BF-1, skimmed milk, 0.05 (w/v) %, cultured 12 hours
[11] = BbY, milk, L-cysteine 0.03% (w/v), filter sterilization (0.22 μm, no heating), culture time 9 h
[12] = BbY, milk, L-cysteine 0.03% (w/v), filter sterilization (0.22 μm, no heating), culture time 12 h
[13] = BbY, milk, L-cysteine 0.03% (w/v), individual heating, culture time 9 h
[14] = BbY, milk, L-cysteine 0.03% (w/v), individual heating, culture time 12 h
[15] = BbY, milk, L-cysteine, simultaneous heating, culture time 9 h
[16] = BbY, milk, L-cysteine, simultaneous heating, culture time 12 h

N[C@@H](CSSC[C@H](N)C(=O)O)C(=O)O [L-cystine]
growth promotion by addition [1]: not observed
growth rate of the viable cell count, simultaneous versus individual heating (growth curve) ([2]; BbY): higher in the case of the simultaneous heating
viable cell count and acidity versus culture medium not containing L-cystine and L-cysteine ([2]; BbY): increased
concentration at which the viable cell count was maximum ([2]; BbY): 0.01 % (w/v)
acidity higher with simultaneous heating than individual heating [2, 5]: 1.3 mL/9 g
viable cell count increase compared to absence of L-cystine [2, 5]: 5.6 times
viable cell count, simultaneous heating versus individual heating [2, 5]: the same
Acidity [2, 6]: 3.82 mL/9 g
Viable cell count [2, 6]: 1.29 × 10^9 CFU/mL
pH [2, 6]: 5.34
Acidity [2, 7]: 5.40 mL/9 g
Viable cell count [2, 7]: 1.89 × 10^9 CFU/mL
pH [2, 7]: 5.00
Acidity [2, 8]: 4.00 mL/9 g
Viable cell count [2, 8]: 1.12 × 10^9 CFU/mL
pH [2, 8]: 5.26
Acidity [2, 9]: 5.42 mL/9 g
Viable cell count [2, 9]: 1.86 × 10^9 CFU/mL
pH [2, 9]: 4.96
viable cell count and acidity versus culture medium not containing L-cystine and L-cysteine [3]: increased
concentration at which the viable cell count was maximum [3]: 0.1 % (w/v)
acidity higher with simultaneous heating than individual heating [3, 10]: 1.3 times
viable cell count higher with simultaneous heating than individual heating [3, 10]: 4.5 times
growth promotion by addition [4]: not observed

Cl.N[C@@H](CS)C(=O)O [L-cysteine, L-cysteine hydrochloride]
growth promotion by addition [1]: not observed
growth rate of the viable cell count, simultaneous versus individual heating (growth curve) ([2]; BbY): higher in the case of the simultaneous heating
Acidity [2, 11]: 3.62 ml/9 g
Viable cell count [2, 11]: 8.92 × 10^8 CFU/ml
pH [2, 11]: 5.40
Acidity [2, 12]: 5.12 ml/9 g
Viable cell count [2, 12]: 1.64 × 10^9 CFU/ml
pH [2, 12]: 4.94
Acidity [2, 13]: 3.59 ml/9 g
Viable cell count [2, 13]: 7.77 × 10^8 CFU/ml
pH [2, 13]: 5.42
Acidity [2, 14]: 5.04 ml/9 g
Viable cell count [2, 14]: 1.78 × 10^9 CFU/ml
pH [2, 14]: 5.02
Acidity [2, 15]: 4.47 ml/9 g
Viable cell count [2, 15]: 1.34 × 10^9 CFU/ml
pH [2, 15]: 5.17
Acidity [2, 16]: 8.05 ml/9 g
Viable cell count [2, 16]: 3.46 × 10^9 CFU/ml
pH [2, 16]: 4.64
viable cell count and acidity versus culture medium not containing L-cystine and L-cysteine ([2]; BbY): increased
concentration at which the viable cell count was maximum ([2]; BbY): 0.03 % (w/v)
promotion of growth by simultaneous heating with milk ([2]; FIGS. 1 and 2): promotion of growth was observed
difference in the culture state of BbY, individual heating versus filter sterilization ([2]; L-cysteine added to milk at 0.03% (w/v)): no difference
viable cell count and acidity versus culture medium not containing L-cystine and L-cysteine [3]: increased
concentration at which the viable cell count was maximum [3]: 0.05 % (w/v)
growth promotion by addition [4]: not observed
